The source of these data is patent US12059408B2, “Treatment of cognitive impairment associated with schizophrenia” (Boehringer Ingelheim International GmbH, priority 2020, dated 2024).

Series [1] deals with CSF glycine. As to the kind of experiment: Proof of clinical mechanism trial in healthy volunteers. Type of series: in vivo, human. Particulars: 10 mg dose.
Series [2] has as its system CSF glycine. The series is described as follows: Animal cognition tasks with CSF glycine and CSF compound levels. Type of series: in vivo. Particulars: animals.
Assay in series [3]: as above
The class given is in vivo. Particulars: animals, efficacious doses.

Series [4] deals with patients with mild to moderate dementia due to AD. As to the kind of experiment: AD trial: cognition by ADAS-Cog11, compound I vs placebo. The class given is in vivo, human. Particulars: for Change from baseline in ADAS-Cog11 total score at Week 12, adjusted mean / Change from baseline in ADAS-Cog11 total score at Week 12, comparison vs. placebo, adjusted mean: MMRM, FAS (OC). The text has this:
This trial was designed to investigate whether compound I either alone as monotherapy or as an add-on therapy to acetylcholinesterase inhibitors can improve cognitive symptoms in patients with AD.
The primary endpoint was change from baseline in ADAS-Cog11 (Alzheimer's Disease Assessment Scale-cognitive subscale) total score after 12-week treatment. (Lower values in the ADAS-Cog11 score indicate better cognitive function.)
• 1) Diagnosis of mild-to-moderate Alzheimer's Disease Dementia according to the recommendations from the National Institute on Aging-Alzheimer's Association workgroups on diagnostic guidelines for Alzheimer's disease. • 2) Male or female patients at least 55 years of age. Patients older than 85 years could be included based on an acceptable general health status, (e.g. concomitant diseases, physical capability to follow the required study procedures (visits etc.)) at discretion of the investigator • 3) MMSE score of 15-26 at screening (Visit 1). • 4) Concomitant use of AChEIs allowed but not required. Key Exclusion Criteria • 1) Dementia secondary to disorders other than Alzheimer's Disease Dementia. • 2) Any central nervous system disease other than AD which according to the investigator may be associated with worsening of cognition. • 3) Any suicidal behaviour in the past 2 years (i.e. actual attempt, interrupted attempt, aborted attempt, or preparatory acts or behaviour). • 4) Any suicidal ideation of type 4 or 5 in the C-SSRS in the past 3 months (i.e. active suicidal thought with intent but without specific plan, or active suicidal thought with plan and intent). • 5) Previous participation in investigational drug studies of dementia of Alzheimer's Type within three months prior to screening. Patients having received any active treatment in studies targeting disease modification of AD are excluded.
Patients eligible for the trial were randomly assigned, in a 1:1:1:1:1 ratio to either • 2 mg compound I • 5 mg compound I • 10 mg compound I • 25 mg compound I • Placebo
An MCPMod approach combined with MMRM was used to test for the proof of concept in this trial.
Patients in the FAS were analysed according to the ITT principle, i.e. according to their randomised trial medication. The FAS was used for analyses of efficacy.
The primary endpoint was the change from baseline in ADAS-Cog11 total score after 12 weeks of treatment. The analyses for PoC and dose-finding were done using the MCPmod technique for MMRM.
Model includes fixed, categorical factors of planned treatment (p-value=0.3425), analysis visit (p-value=0.7890), baseline MMSE stratification factor (≥20, <20) (p-value≤0.0001), and planned treatment by analysis visit interaction (p-value=0.7534), as well as the continuous fixed covariate of baseline value (p-value≤0.0001) and baseline value by analysis visit interaction (p-value=0.1185).

Structures are written as SMILES.

As to `C[C@@H](Oc1ccc(S(C)(=O)=O)cc1C(=O)N1C[C@@H]2C[C@]2(c2cc(C(F)(F)F)on2)C1)C(F)(F)F` [compound I, [5-(methylsulfonyl)-2-{[(2R)-1,1,1-trifluoropropan-2-yl]oxy}phenyl] {(1R,5R)-1-[5-(trifluoromethyl)-1,2-oxazol-3-yl]-3-azabicyclo[3.1.0]hex-3-yl}methanone], the “CSF glycine increase and CSF level criteria” value with CSF glycine [1] is recorded as “these criteria were met by the 10 mg dose”. Besides, the “Increase of CSF glycine at doses efficacious in animal cognition tasks” value with CSF glycine [2] is on record as “approximately 50%”. Besides, the “CSF levels of compound I required for efficacy” value in series [3] is reported as 1-2 × GlyT1 IC50. The “Change from baseline in ADAS-Cog11 total score at Week 12, adjusted mean” value is −0.02 in series [4] (2 mg once daily oral), 0.23 in series [4] (5 mg once daily oral), 0.69 in series [4] (10 mg once daily oral) and −0.08 in series [4] (25 mg once daily oral). In addition, the “Change from baseline in ADAS-Cog11 total score at Week 12, comparison vs. placebo, adjusted mean” value in series [4] (2 mg) is on record as 0.05; in series [4] (5 mg), 0.30; in series [4] (10 mg), 0.76; in series [4] (25 mg) it was −0.02. Moreover, the “Dose-response of change from baseline in ADAS-Cog11 total score at Week 12 (MCPmod, 6 models)” value in series [4] (2 to 25 mg) is reported as “no dose response relation was observed”. In addition, the “Secondary and further endpoints: ADCS-ADL, CIBIC+, cognitive composite, COWAT, VFT, Coding, Digit Span Backwards” value in series [4] (change from baseline) is “no treatment differences indicative of a benefit were found”. Moreover, the “Improvement of cognition in patients suffering from Alzheimer's disease” value in series [4] (same doses regimen as CIAS) is given as “ineffective”.
